Laboratory results reported in patent publication US20260242739A1, “ROLE OF HEPATOCYTE-DERIVED EXTRACELLULAR MATRIX AND COAGULATION FACTORS FOR THE FATE RESTORATION AND MAINTENANCE OF HUMAN HEPATOCYTES” (UNIVERSITY OF SOUTHERN CALIFORNIA, priority 2023, published 2026).

Tested on: HLCM-HHs
Assay type: cell-based, human
Details: 7 days
Experimental: As described in our previous publication (Tateno 2015), humanized liver chimeric mice (HLCM) were generated through xenotransplantation of cryopreserved or freshly isolated primary human hepatocytes (Lot:JFC, BioIVT, NY, US) into severe […] immune deficient (SCID) mice carrying a albumin enhancer/promoter-driven transgene (cDNA), urokinase type plasminogen activator, namely cDNA-uPA Tg/SCID). HLCM with blood human albumin level higher than 10 mg/mL were used for human hepatocyte isolation with two-step collagenase perfusion. The freshly isolated HLCM derived human hepatocytes (HLCM-HH) were plated on type I collagen coated culture dishes (BioCoat, Corning, NY, USA) at 1.05×10^5 cells/cm^2. […]
Total RNA was extracted with Zymo-Quick RNA micro kit (Zymo Research, CA, USA) according to the provider's protocol. […] Real-time quantitative PCR was performed with PowerUp SYBR Green Master Mix (ThermoFisher Scientific, MA, USA) and QuantStudio 5 systems (ThermoFisher Scientific) using human specific primer sets summarized in the Table 4. Relative gene expression levels were analyzed with the Delta-Dleta Ct method.

Fibrinogen
expression of cholangiocyte/liver progenitor cell markers, TGFB2 and ANKRD1 (INVITROGRO HI (IH) and HCM media with or without fibrinogen 50 μg/mL): significantly inhibited | expressions of cholangiocyte/liver progenitor cell markers (TGFB1, TGFB2, ANKRD1, KRT19) (supplemented to fresh dHCGM at 50 μg/mL, vs dHCGM alone, qPCR): significantly inhibited
